Assay results as given in PubChem BioAssay AID1845205 (Molecular Pharmacology Branch, DTP, NCI, 2023).

Tested on: MPNST multicellular tumor spheroids, viability % test/control
Experiment: Anticancer human tumor MPNST cell line growth inhibition;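 note: spheroids exposed to agents for seven days after three days of growth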;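 for viability, T/C: luminescence signal used as surrogate for viable cell amount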
Settings: for IC50: curve of first compound; for viability, T/C: stronger effect = lower value
In short: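 Complex tumor spheroids combined malignant cells with endothelial cells and mesenchymal stem cells. DNA-damaging drugs and DNA repair inhibitors were tested alone and in combination, at half-log dilutions down from clinical Cmax (top 10 microM if Cmax unknown), 0.25% DMSO final.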

[1] = second compound 1 µM, first compound 0.0316 µM
[2] = second compound 1 µM, first compound 0.1 µM
[3] = second compound 1 µM, first compound 0.316 µM
[4] = second compound 1 µM, first compound 1 µM
[5] = second compound 1 µM, first compound 3.16 µM
[6] = second compound 1 µM, first compound 10 µM
[7] = second compound 3.16 µM, first compound 0.0316 µM
[8] = second compound 3.16 µM, first compound 0.1 µM
[9] = second compound 3.16 µM, first compound 0.316 µM
[10] = second compound 3.16 µM, first compound 1 µM
[11] = second compound 3.16 µM, first compound 3.16 µM
[12] = second compound 3.16 µM, first compound 10 µM
[13] = second compound 10 µM, first compound 0.0316 µM
[14] = second compound 10 µM, first compound 0.1 µM
[15] = second compound 10 µM, first compound 0.316 µM
[16] = second compound 10 µM, first compound 1 µM
[17] = second compound 10 µM, first compound 3.16 µM
[18] = second compound 10 µM, first compound 10 µM
[19] = second compound 31.6 µM, first compound 0.0316 µM
[20] = second compound 31.6 µM, first compound 0.1 µM
[21] = second compound 31.6 µM, first compound 0.316 µM
[22] = second compound 31.6 µM, first compound 1 µM
[23] = second compound 31.6 µM, first compound 3.16 µM
[24] = second compound 31.6 µM, first compound 10 µM
[25] = second compound 100 µM, first compound 0.0316 µM
[26] = second compound 100 µM, first compound 0.1 µM
[27] = second compound 100 µM, first compound 0.316 µM
[28] = second compound 100 µM, first compound 1 µM
[29] = second compound 100 µM, first compound 3.16 µM
[30] = second compound 100 µM, first compound 10 µM

Cc1cc(C)c(CNC(=O)c2cc(-c3ccc(CN4CCOCC4)cc3)cc3c2cnn3C2CCCC2)c(=O)[nH]1 + Cn1nnc2c(C(N)=O)ncn2c1=O
IC50 (second compound 1 µM): > 10 µM
IC50 (second compound 3.16 µM): > 10 µM
IC50 (second compound 10 µM): > 10 µM
IC50 (second compound 31.6 µM): > 10 µM
IC50 (second compound 100 µM): > 10 µM
viability, T/C [1]: 95.9%
viability, T/C [2]: 82.8%
viability, T/C [3]: 101%
viability, T/C [4]: 92.7%
viability, T/C [5]: 115%
viability, T/C [6]: 98.6%
viability, T/C [7]: 141%
viability, T/C [8]: 96.7%
viability, T/C [9]: 116%
viability, T/C [10]: 109%
viability, T/C [11]: 103%
viability, T/C [12]: 104%
viability, T/C [13]: 75.3%
viability, T/C [14]: 90.9%
viability, T/C [15]: 107%
viability, T/C [16]: 91%
viability, T/C [17]: 109%
viability, T/C [18]: 103%
viability, T/C [19]: 103%
viability, T/C [20]: 85.8%
viability, T/C [21]: 111%
viability, T/C [22]: 107%
viability, T/C [23]: 103%
viability, T/C [24]: 99.5%
viability, T/C [25]: 99.1%
viability, T/C [26]: 97.5%
viability, T/C [27]: 96.9%
viability, T/C [28]: 109%
viability, T/C [29]: 97.9%
viability, T/C [30]: 88.4%

Cc1sc2c(c1C)C(c1ccc(Cl)cc1)=NC(CC(=O)Nc1ccc(O)cc1)c1nnc(C)n1-2 (stereo not given) + Cn1nnc2c(C(N)=O)ncn2c1=O
IC50 (second compound 1 µM): 1.44 µM
IC50 (second compound 3.16 µM): 0.813 µM
IC50 (second compound 10 µM): 1.79 µM
IC50 (second compound 31.6 µM): > 3 µM
IC50 (second compound 100 µM): 0.678 µM
viability, T/C (second compound 1 µM, first compound 0.00949 µM): 123%
viability, T/C (second compound 1 µM, first compound 0.03 µM): 97.7%
viability, T/C (second compound 1 µM, first compound 0.0949 µM): 78.7%
viability, T/C (second compound 1 µM, first compound 0.3 µM): 60.5%
viability, T/C (second compound 1 µM, first compound 0.949 µM): 51.3%
viability, T/C (second compound 1 µM, first compound 3 µM): 47.3%
viability, T/C (second compound 3.16 µM, first compound 0.00949 µM): 96.7%
viability, T/C (second compound 3.16 µM, first compound 0.03 µM): 125%
viability, T/C (second compound 3.16 µM, first compound 0.0949 µM): 92.4%
viability, T/C (second compound 3.16 µM, first compound 0.3 µM): 60.4%
viability, T/C (second compound 3.16 µM, first compound 0.949 µM): 49.7%
viability, T/C (second compound 3.16 µM, first compound 3 µM): 45.8%
viability, T/C (second compound 10 µM, first compound 0.00949 µM): 102%
viability, T/C (second compound 10 µM, first compound 0.03 µM): 123%
viability, T/C (second compound 10 µM, first compound 0.0949 µM): 93.8%
viability, T/C (second compound 10 µM, first compound 0.3 µM): 62.7%
viability, T/C (second compound 10 µM, first compound 0.949 µM): 50.7%
viability, T/C (second compound 10 µM, first compound 3 µM): 48.5%
viability, T/C (second compound 31.6 µM, first compound 0.00949 µM): 95.6%
viability, T/C (second compound 31.6 µM, first compound 0.03 µM): 108%
viability, T/C (second compound 31.6 µM, first compound 0.0949 µM): 91.7%
viability, T/C (second compound 31.6 µM, first compound 0.3 µM): 60%
viability, T/C (second compound 31.6 µM, first compound 0.949 µM): 50%
viability, T/C (second compound 31.6 µM, first compound 3 µM): 51.4%
viability, T/C (second compound 100 µM, first compound 0.00949 µM): 91.5%
viability, T/C (second compound 100 µM, first compound 0.03 µM): 87%
viability, T/C (second compound 100 µM, first compound 0.0949 µM): 83.2%
viability, T/C (second compound 100 µM, first compound 0.3 µM): 58.6%
viability, T/C (second compound 100 µM, first compound 0.949 µM): 47.3%
viability, T/C (second compound 100 µM, first compound 3 µM): 43.7%

[2H]c1nc(C)nc([2H])c1-c1cc(NC[C@@H](C)c2cccc3c(C(=O)NC)ccnc23)ncn1 + Cn1nnc2c(C(N)=O)ncn2c1=O
IC50 (second compound 1 µM): > 10 µM
IC50 (second compound 3.16 µM): > 10 µM
IC50 (second compound 10 µM): > 10 µM
IC50 (second compound 31.6 µM): > 10 µM
IC50 (second compound 100 µM): > 10 µM
viability, T/C [1]: 86.5%
viability, T/C [2]: 86.8%
viability, T/C [3]: 93.2%
viability, T/C [4]: 101%
viability, T/C [5]: 97.3%
viability, T/C [6]: 104%
viability, T/C [7]: 114%
viability, T/C [8]: 100%
viability, T/C [9]: 76.3%
viability, T/C [10]: 91%
viability, T/C [11]: 89.8%
viability, T/C [12]: 104%
viability, T/C [13]: 81.1%
viability, T/C [14]: 94.9%
viability, T/C [15]: 108%
viability, T/C [16]: 116%
viability, T/C [17]: 94.1%
viability, T/C [18]: 108%
viability, T/C [19]: 85%
viability, T/C [20]: 85.9%
viability, T/C [21]: 79.5%
viability, T/C [22]: 96.8%
viability, T/C [23]: 78.7%
viability, T/C [24]: 101%
viability, T/C [25]: 89.5%
viability, T/C [26]: 111%
viability, T/C [27]: 113%
viability, T/C [28]: 81.1%
viability, T/C [29]: 107%
viability, T/C [30]: 89.9%
